Measurements taken from patent US20260317337A1, “HETEROCYCLIC COMPOUNDS FOR IMAGING AGGREGATED ALPHA SYNUCLEIN IN THE SYNUCLEINOPATHIES” (THE TRUSTEES OF THE UNIVERSITY OF PENNSYLVANIA, priority 2023, published 2026).

Target: α-synuclein fibrils (Homo sapiens, UniProt P37840)
Assay: Competitive radioligand binding with [^3H]BF2846 on α-synuclein fibrils
Settings: [^3H]BF2846, α-synuclein fibrils; mean + Sd, n = 3; read-out: α-syn Ki
Procedure: Competition binding assays were performed with [^3H]BF2846 and [^3H]PIB to measure affinity to Asyn and Aβ. […]

Structure (SMILES)	Ki
COc1ccc(NC(=O)c2cnc(N3C4CCC3CN(c3cc5ccccc5cn3)C4)nc2N)cc1 [Compound 19, 4-Amino-2-(3-(isoquinolin-3-yl)-3,8-diazabicyclo[3.2.1]octan-8-yl)-N-(4-methoxyphenyl)pyrimidine-5-carboxamide]	45 nM
COc1ccc(NC(=O)c2cnc(N3CC4CCC(C3)N4c3cc4ccccc4cn3)nc2N)cc1 [Compound 21, 4-Amino-2-(8-(isoquinolin-3-yl)-3,8-diazabicyclo[3.2.1]octan-3-yl)-N-(4-methoxyphenyl)pyrimidine-5-carboxamide]	255 nM
COc1ccc(NC(=O)c2cnc(N3CCN(c4nc5ccccc5o4)CC3)nc2N)cc1 [Compound 26, 4-Amino-2-(4-(benzo[d]oxazol-2-yl)piperazin-1-yl)-N-(4-methoxyphenyl)pyrimidine-5-carboxamide]	6 nM
COc1ccc(NC(=O)c2cnc(N3CCN(c4nc5ccccc5s4)CC3)nc2N)cc1 [Compound 27, 4-Amino-2-(4-(benzo[d]thiazol-2-yl)piperazin-1-yl)-N-(4-methoxyphenyl)pyrimidine-5-carboxamide]	1.1 nM
COc1ccc(NC(=O)c2cnc(N3CCN(c4ccc(OC)cc4)CC3)nc2N)cc1 [Compound 33, 4-Amino-N-(4-methoxyphenyl)-2-(4-(4-methoxyphenyl)piperazin-1-yl)pyrimidine-5-carboxamide]	44.5 nM
Nc1nc(N2CCN(c3ccccn3)CC2)ncc1C(=O)Nc1ccc(F)cc1 [Compound 34, 4-Amino-N-(4-fluorophenyl)-2-(4-(pyridin-2-yl)piperazin-1-yl)pyrimidine-5-carboxamide]	10 nM
Nc1nc(N2CCN(c3ccccn3)CC2)ncc1C(=O)OCCO [Compound 37, 2-Hydroxyethyl 4-amino-2-(4-(pyridin-2-yl)piperazin-1-yl)pyrimidine-5-carboxylate]	41.4 nM
Cc1cnc(N2CCN(c3ccccn3)CC2)nc1N [Compound 39, 5-Methyl-2-(4-(pyridin-2-yl)piperazin-1-yl)pyrimidin-4-amine]	84.1 nM
N#Cc1cnc(N2CCN(c3ccccn3)CC2)nc1N [Compound 41, 4-Amino-2-(4-(pyridin-2-yl)piperazin-1-yl)pyrimidine-5-carbonitrile]	7.5 nM
COc1ccc(NC(=O)c2cnc(Cl)nc2)cc1 [Compound 43, 2-Chloro-N-(4-methoxyphenyl)pyrimidine-5-carboxamide]	6.5 nM
COc1ccc(C(=O)Nc2ccc(N3CCC4(CC3)CCN(c3ccccn3)C4)cc2)cc1 [Compound 101, 4-methoxy-N-(4-(2-(pyridin-2-yl)-2,8-diazaspiro[4.5]decan-8-yl)phenyl)benzamide]	21.9 ± 9.7 nM
COc1ccc(C(=O)Nc2ccc(N3C4CCC3CN(c3ccccn3)C4)cc2)cc1 [Compound 103, 4-methoxy-N-(4-(3-(pyridin-2-yl)-3,8-diazabicyclo[3.2.1]octan-8-yl)phenyl)benzamide]	6.1 ± 2.1 nM
COc1ccc(C(=O)Nc2ccc(N3C4CCC3CN(c3cnc5ccccc5n3)C4)cc2)cc1 [Compound 105, 4-methoxy-N-(4-(3-(quinoxalin-2-yl)-3,8-diazabicyclo[3.2.1]octan-8-yl)phenyl)benzamide]	47.6 ± 14 nM
COc1ccc(C(=O)Nc2ccc(N3CCCN(c4ccccn4)CC3)cc2)cc1 [Compound 107, 4-methoxy-N-(4-(4-(pyridin-2-yl)-1,4-diazepan-1-yl)phenyl)benzamide]	8.7 ± 0.6 nM
COc1ccc(C(=O)Nc2ccc(N3CCN(c4ccccn4)CC3)cn2)cc1 [Compound 109, 4-methoxy-N-(5-(4-(pyridin-2-yl)piperazin-1-yl)pyridin-2-yl)benzamide]	5 ± 0.34 nM
COc1ccc(C(=O)Nc2ccc(N3C4CCC3CN(c3ccccn3)C4)cn2)cc1 [Compound 110, 4-methoxy-N-(5-(3-(pyridin-2-yl)-3,8-diazabicyclo[3.2.1]octan-8-yl)pyridin-2-yl)benzamide]	44.1 ± 32 nM
COc1ccc(C(=O)Nc2ccc(N3CC(OC)C3)cc2)cc1 [Compound 115, 4-methoxy-N-(4-(3-methoxyazetidin-1-yl)phenyl)benzamide]	28.6 ± 33 nM
O=C(Nc1ccc(N2C3CCC2CN(c2ccccn2)C3)cc1)c1ccc(OCCF)cc1 [Compound 116, 4-(2-fluoroethoxy)-N-(4-(3-(pyridin-2-yl)-3,8-diazabicyclo[3.2.1]octan-8-yl)phenyl)benzamide]	12.7 ± 2.3 nM
COc1ccc(NC(=O)c2cnc(N3CCN(c4cccnc4)CC3)nc2N)cc1 [Compound 118, 4-Amino-N-(4-methoxyphenyl)-2-(4-(pyridin-3-yl)piperazin-1-yl)pyrimidine-5-carboxamide]	142 nM
CCOC(=O)c1cnc(N2CCN(c3ncccn3)CC2)nc1N [Compound 119, Ethyl 4-amino-2-(4-(pyrimidin-2-yl)piperazin-1-yl)pyrimidine-5-carboxylate]	19.5 nM
CCOC(=O)c1cnc(N2CCN(c3cnccn3)CC2)nc1N [Compound 121, Ethyl 4-amino-2-(4-(pyrazin-2-yl)piperazin-1-yl)pyrimidine-5-carboxylate]	8.4 nM
CCOC(=O)c1cnc(N2CCN(c3nccs3)CC2)nc1N [Compound 123, Ethyl 4-amino-2-(4-(thiazol-2-yl)piperazin-1-yl)pyrimidine-5-carboxylate]	51.1 nM
COc1ccc(NC(=O)c2cnc(N3CCN(c4nccs4)CC3)nc2N)cc1 [Compound 124, 4-Amino-N-(4-methoxyphenyl)-2-(4-(thiazol-2-yl)piperazin-1-yl)pyrimidine-5-carboxamide]	29.9 nM
COc1ccc(NC(=O)c2cnc(N3CC4CCC(C3)N4c3cnc4ccccc4c3)nc2N)cc1 [Compound 126, 4-Amino-N-(4-methoxyphenyl)-2-(8-(quinolin-3-yl)-3,8-diazabicyclo[3.2.1]octan-3-yl)pyrimidine-5-carboxamide]	522 nM
Nc1nc(N2CCN(c3nc4ccccc4o3)CC2)ncc1C(=O)Nc1ccc(OCCF)cc1 [Compound 133, 4-Amino-2-(4-(benzo[d]oxazol-2-yl)piperazin-1-yl)-N-(4-(2-fluoroethoxy)phenyl)pyrimidine-5-carboxamide]	1.26 nM
Nc1nc(N2CCN(c3ccccn3)CC2)ncc1C(=O)Nc1ccc(OC[C@H](O)CF)cc1 [Compound 135, (S)-4-amino-N-(4-(3-fluoro-2-hydroxypropoxy)phenyl)-2-(4-(pyridin-2-yl)piperazin-1-yl)pyrimidine-5-carboxamide]	16.9 nM
Nc1nc(N2CCN(c3ccccn3)CC2)ncc1C(=O)Nc1ccc(OC[C@@H](O)CF)cc1 [Compound 136, (R)-4-amino-N-(4-(3-fluoro-2-hydroxypropoxy)phenyl)-2-(4-(pyridin-2-yl)piperazin-1-yl)pyrimidine-5-carboxamide]	24.8 nM

Target: T1, alpha synuclein (Homo sapiens, UniProt P37840)
T1 construct: autoradiography
Assay: Autoradiography in postmortem brain tissue sections
Type: binding
Settings: PD, MSA and control brain sections
Procedure: FIGS. 1A and 1C are nuclear emulsion autoradiography images of a postmortem brain samples (A—[…] PD brain; C—MSA brain) after administration of ^3H-Compound 103. FIGS. 1B and 1D are the same samples from FIGS. 1A and 1C after incubating sequentially with anti-phospho-α-syn (S129) antibody (p-syn/81A, BioLegend) and Alexa Fluor 488 goat anti-mouse secondary antibody to immunostain LBs and LNs. FIGS. 1E and 1G are nuclear emulsion autoradiography images of postmortem brain samples of (E—PD brain; G—[…] MSA brain) with ^3H-Compound 43. FIGS. 1F and 1H are the same samples from FIGS. 1E and 1G after incubating sequentially with anti-phospho-α-syn (S129) antibody (p-syn/81A, BioLegend) and Alexa Fluor 488 goat anti-mouse secondary antibody to immunostain LBs and LNs.
FIG. 3 are autoradiography images in tissue sections of ^3H-Compound 103 and ^3H-Compound 43 in PD, MSA and control brain. Neuropathological scores for Abeta, tau and Asyn are shown for each tissue section.
Kd and Bmax values of [^3H]-Compound 113 were obtained from a panel of postmortem brain samples (e.g., PD, MSA, corticobasal degeneration (CBD), progressive supranuclear palsy (PSP), Alzheimer's disease (AD)). Nuclear emulsion autoradiography identified the distribution of [^3H]-Compound 113 on PD and MSA tissues for aggregated Asyn, which was confirmed by antibody staining. […]

Structure (SMILES)	ability to image alpha synuclein in human postmortem samples
COc1ccc(NC(=O)c2cnc(Cl)nc2)cc1 [[^3H]-Compound 43]	PD and not MSA and age-matched control
COc1ccc(C(=O)Nc2ccc(N3C4CCC3CN(c3ccccn3)C4)cc2)cc1 [[^3H]-Compound 103, 4-methoxy-N-(4-(3-(pyridin-2-yl)-3,8-diazabicyclo[3.2.1]octan-8-yl)phenyl)benzamide]	MSA and not PD and age-matched control

System: not listed separately
Assay: Dynamic PET imaging in non-human primate
Type: in vivo
Settings: not given
Procedure: FIG. 2 are dynamic whole body PET images of ^11C-compound 103 in a non-human primate 1-90 minutes after administration ^11C-compound 103.
FIG. 6 are dynamic PET images (top) and time-activity curves for whole brain and different brain regions (bottom) of ^11C-compound 103 in a non-human primate and show the high uptake and rapid washout of [^11C]-compound 103.
FIG. 7 are dynamic PET images (top) and time-activity curves (bottom) of ^11C-compound 43 in a non-human primate and show the high uptake and rapid washout of [^11C]-compound 43.
Kd and Bmax values of [^3H]-Compound 113 were obtained from a panel of postmortem brain samples (e.g., PD, MSA, corticobasal degeneration (CBD), progressive supranuclear palsy (PSP), Alzheimer's disease (AD)). Nuclear emulsion autoradiography identified the distribution of [^3H]-Compound 113 on PD and MSA tissues for aggregated Asyn, which was confirmed by antibody staining. Dynamic whole body PET images of [^11C]-Compound 113 in non-human primate were obtained over 90 min. […] The non-human primate PET study confirmed that [^11C]-Compound 113 had good brain uptake (SUV ~1.6) and rapid washout (2:60 min ratio ~3.0).

Structure (SMILES)	uptake (words)	washout
COc1ccc(C(=O)Nc2ccc(N3C4CCC3CN(c3ccccn3)C4)cc2)cc1 [[^11C]-Compound 103, 4-methoxy-N-(4-(3-(pyridin-2-yl)-3,8-diazabicyclo[3.2.1]octan-8-yl)phenyl)benzamide]	high brain uptake	rapid washout
COc1ccc(NC(=O)c2cnc(Cl)nc2)cc1 [[^11C]-compound 43]	high uptake	rapid washout

Same assay, conditions: listed as [^11C]-compound 103

Structure (SMILES)	uptake (words)
COc1ccc(C(=O)Nc2ccc(N3C4CCC3CN(c3ccccn3)C4)cc2)cc1 [[^11C]-Compound 103, 4-methoxy-N-(4-(3-(pyridin-2-yl)-3,8-diazabicyclo[3.2.1]octan-8-yl)phenyl)benzamide]	high uptake

Target: aggregated tau (Homo sapiens, UniProt P10636)
Assay: Blocking of the ^3H-labelled compound with tau ligands, homogenate binding and autoradiography
Settings: AD, CBD and PSP

Chain of aggregated tau (P10636 whole entry): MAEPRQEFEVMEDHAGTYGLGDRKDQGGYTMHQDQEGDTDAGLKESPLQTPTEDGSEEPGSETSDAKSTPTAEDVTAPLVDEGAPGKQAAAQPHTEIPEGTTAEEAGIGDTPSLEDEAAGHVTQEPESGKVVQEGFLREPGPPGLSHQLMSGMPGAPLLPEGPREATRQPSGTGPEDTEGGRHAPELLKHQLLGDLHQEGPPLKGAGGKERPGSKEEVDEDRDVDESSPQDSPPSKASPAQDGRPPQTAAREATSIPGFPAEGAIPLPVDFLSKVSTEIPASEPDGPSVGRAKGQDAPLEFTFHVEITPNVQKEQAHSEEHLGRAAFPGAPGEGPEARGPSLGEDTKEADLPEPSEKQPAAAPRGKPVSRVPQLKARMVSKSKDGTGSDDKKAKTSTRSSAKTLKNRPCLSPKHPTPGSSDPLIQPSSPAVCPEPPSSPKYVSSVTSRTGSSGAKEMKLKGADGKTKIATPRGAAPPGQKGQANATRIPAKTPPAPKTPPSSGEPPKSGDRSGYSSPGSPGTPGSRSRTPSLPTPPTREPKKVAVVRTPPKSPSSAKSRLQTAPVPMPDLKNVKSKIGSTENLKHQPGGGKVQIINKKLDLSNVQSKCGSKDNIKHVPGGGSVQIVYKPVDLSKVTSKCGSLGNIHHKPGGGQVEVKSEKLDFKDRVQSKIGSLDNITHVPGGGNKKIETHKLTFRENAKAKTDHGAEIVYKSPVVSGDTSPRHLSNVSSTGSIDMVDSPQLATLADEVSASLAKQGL

Structure (SMILES)	blocking of [^3H]-Compound 113 binding by tau ligands
Fc1cc(-c2ccc3c(n2)[nH]c2ccncc23)ccn1 [PI-2620]	could not be blocked
CNc1ccc(/C=C/C=C/c2nc3ccc(OCC(O)CF)cc3s2)cn1 (stereo not drawn) [PM-PBB3]	could not be blocked
